Source: US11191735B2, “Arginine silicate for periodontal disease” (NUTRITION 21, LLC, priority 2015, dated 2021)
Where two headings read alike, the source gives them in different places. Marks after values point to notes of the source that are not given here.

Legend:
[1] = test system: experimental periodontal disease (ligature model); settings: for ALP (serum) / CRP (serum) / Ca (serum) / P (serum): rats
Description: (§1) All animals and surgical procedures were handled in accordance with guidelines of the Chancellor's Animal Research Committee of the Office for Protection of Research Subjects at the University of Inonu, Malatya, Turkey (2013/A-12). Fifty-two (2-month-old) female Sprague-Dawley rats weighing […] (Experimental Research Center of Inonu University) were kept in temperature-controlled cages (approximately 25° C.), exposed to a 24-hr light-dark cycle of equal time, and had free access to water and food ad libitum.
(§2) The fifty-two rats were randomly divided into four groups: the non-ligated treatment (Control) group (n=13), the ligature-only (L) group (n=13), the ligature plus ASI (“arginine-silicate-inositol;” Nutrition 21, NY, USA, see, e.g. U.S. Pat. Nos. 5,707,970 and 7,576,132) with dose of 1.81 mg/kg of diet group (designated “ASI I”), (n=13), the ligature plus ASI with dose of 3.62 mg/kg of diet group (designated “ASI II”) (n=13).
(§3) For all the studies described herein, the well-characterized ligature model of placing a sterile wire ligature around the crown of the right first maxillary molar was utilized. Rats were anesthetized with Rompun®, 10 mg/kg ve Xylazine®, 40 mg/kg ketamin, and a sterile 28-gauge wire ligature was placed around the cervical portion of the right first molar. Animals continued to receive basal diet or basal diet supplemented with 1.81 or 3.62 […] (Proctor et al., 2005) for 8 weeks before ligature placement.
(§4) Animals were monitored weekly to ensure presence of the ligature, and the ligature was adjusted if necessary. At the end of the experiment, animals were euthanized, blood was collected via cardiac puncture, and serum biomarkers including Ca, Mg, phosphorus, alkaline phosphatase, and CRP (C-reactive protein) were measured. Whole maxillas were removed, placed in 10% formalin for 48 hours, and stored in 70% ethanol.

[2] = test system: IL-1β, MMP-8, RANK, RANKL, OPG, MPO expression levels from periodontal tissue; settings: for IL-1β protein level / MMP-8 protein level / MPO protein level / OPG protein level / RANK protein level / RANKL protein level: control = 100
From the text: FIG. 1B depicts western blot strips Il-1B, MMP-8, RANK, RANK-L, OPG and MPO expression levels from periodontal tissue.
as §1, §2, §3, §4

[3] = test system: experimental periodontal disease (ligature model); settings: for ICI Dense, animals / ICI Little visible, animals / ICI Slightly visible, animals: n=13
Description: as §1, §2, §3
A histologic evaluation was performed by a single examiner (I.O.) who was masked to the identity of the samples. The specimens were fixed in a 10% neutral-buffered formalin solution and demineralized in an aqueous 10% formic acid solution. The specimens were then dehydrated, embedded in paraffin, and sectioned along the molars in a mesiodistal plane for hematoxylin and eosin staining, as described by Toker et al. Light microscopy (Nikon, Tokyo, Japan), and assessment was performed on the two sections with a thickness of about […], corresponding to the buccal and lingual areas between the first and second molars where ligatures had been placed.
The areas of alveolar bone and interdental septum were analyzed under light microscopy, considering parameters including inflammatory cell infiltration (“ICI”) of the periodontal tissues, existing resorption lacunae (osteoclast surfaces), osteoblastic activity (forming surfaces) and the number of osteoclasts. […] Osteoclasts were counted based on their morphology.

[4] = test system: experimental periodontal disease (ligature model)
Description: as §1, §2, §3
Bones were imaged by micro-computed tomographic (μCT) scanning (SkyScan1172 Compact MKT (Kontich, Belgium)) at 16-μm resolution, and volumetric data were converted to DICOM format and imported in the Recon 1.6.9.4 SkyScan (Contich, Belgium) to generate 3D and multiplanar reconstructed images. An oral and maxillofacial radiologist (ST), blinded to the specific animal treatment, evaluated the μCT images of all animals to identify and score bony changes and performed all linear measurements using Recon software tools.
To quantify the amount of bone loss induced by experimental periodontal disease (PD), the imaged volume was oriented with the nasal cavity floor parallel to the horizontal plane and the midpalatal suture parallel to the midsagittal plane. Then the volume was angled such that the long axis of the distal root of the first molar (D1) and the mesial root of the second molar (M2) were vertical to the horizontal plane. Then the distance between the cementoenamel junction (CEJ) and the alveolar bone crest (ABC) was measured at the center of D1 and M2. To quantitatively assess changes in the width of the buccal alveolar outline on axial slices, the imaged volume was oriented such that the floor of the nasal cavity was parallel to the horizontal plane and the midpalatal suture was parallel to the midsagittal plane. Then the shortest distance from the buccal surface of the root to the buccal outline of the alveolar ridge was measured for the mesial and distal roots of the first and second molars at the level of the hard palate.

[5] = test system: early to mild periodontitis
From the text: The study group comprises ten systemically healthy subjects with early to mild periodontitis. […] Prior to any treatment procedure, oral hygiene instructions (OHI) are given. Each quadrant of the subjects is randomly assigned to one of the following groups: (A) scaling and root planning combined with daily administration of arginine silicate post-treatment, (B) scaling and root planning alone, (C) daily administration of arginine silicate alone, and (D) OHI alone.
Subjects are re-examined at one week, four weeks, eight weeks, and 12 weeks.

[6] = test system: gingivitis; experiment: Study in patients with gingivitis (Example 4); type: in vivo, human
Description: 20 patients with gingivitis (having at least three of the following symptoms: swollen gums, bright red or purple gum tissue, gum tissue that is sensitive to touch, bleeding gums, bad breath) are studied. Five patients are administered once-daily arginine silicate (I); five patients are topically administered once-daily arginine silicate to the oral cavity (II); five patients are administered chlorhexidine mouthwash for twice-daily use (III); and five patients are administered standard over-the-counter mouthwash for twice daily use (IV).
Patients are evaluated at four weeks, eight weeks, and twelve weeks. […] The trial is ceased at twelve weeks to avoid side effects from the chlorhexidine treatment.

[7] = L + ASI I: ligature plus ASI, 1.81 mg/kg of diet
[8] = L + ASI II: ligature plus ASI, 3.62 mg/kg of diet

For arginine silicate inositol [ASI], the serum calcium levels ([1]; ASI II group (3.62 mg/kg of diet)) was “significantly reduced”, the “serum CRP levels in comparison to the induced periodontitis group” value ([1]; ASI treatment groups (both doses)) was “significantly lower” and the “ALP (serum)” value [1, 7] was 440.31 ± 69.93 U/L. The “CRP (serum)” value [1, 7] was 0.16 ± 0.07^b mg/dl, the “Ca (serum)” value [1, 7] was 10.37 ± 0.32 mg/dL and the “P (serum)” value [1, 7] was 8.35 ± 1.82 mg/dL. For the same substance, the “ALP (serum)” value [1, 8] was 380.54 ± 85.36 U/L, the “CRP (serum)” value [1, 8] was 0.18 ± 0.06^b mg/dl and the “Ca (serum)” value [1, 8] was 9.78 ± 0.66^c mg/dl. For the same substance, the “P (serum)” value [1, 8] was 7.82 ± 1.61 mg/dL, the “levels for IL-1β and MPO in the ASI II group in comparison to the ASI I group” value ([2]; 3.62 vs 1.81 mg/kg of diet) was “significantly lower” and the “levels for IL-1β, MMP-8, RANK, RANKL, OPG, MPO in comparison to the periodontitis group” value ([2]; ASI groups (both doses)) was “significantly lower”. For the same substance, the IL-1β protein level ([2]; L + ASI I: 1.81 mg/kg of diet) was 142.5 ± 2.53^a,b, the MMP-8 protein level ([2]; L + ASI I: 1.81 mg/kg of diet) was 166.79 ± 7.86^a,b and the MPO protein level ([2]; L + ASI I: 1.81 mg/kg of diet) was 180 ± 2.97^a,b. The OPG protein level ([2]; L + ASI I: 1.81 mg/kg of diet) was 72.87 ± 4.67^a,b, the RANK protein level ([2]; L + ASI I: 1.81 mg/kg of diet) was 189.27 ± 5.3^a,b and the RANKL protein level ([2]; L + ASI I: 1.81 mg/kg of diet) was 150.11 ± 6.34^a,b. For the same substance, the IL-1β protein level ([2]; L + ASI II: 3.62 mg/kg of diet) was 111.24 ± 2.35^a,b,c, the MMP-8 protein level ([2]; L + ASI II: 3.62 mg/kg of diet) was 150.256 ± 11.6^a,b and the MPO protein level ([2]; L + ASI II: 3.62 mg/kg of diet) was 159.59 ± 13.09^a,b,c. The OPG protein level ([2]; L + ASI II: 3.62 mg/kg of diet) was 91.13 ± 3.04^a,b,c, the RANK protein level ([2]; L + ASI II: 3.62 mg/kg of diet) was 174.31 ± 9.82^a,b and the RANKL protein level ([2]; L + ASI II: 3.62 mg/kg of diet) was 138.35 ± 13.6^a,b. For the same substance, the “ICI (inflammatory cell infiltration)” value ([3]; ASI treatment (both doses)) was “significantly reduced”, the “ICI Dense, animals” value ([3]; L + ASI I: 1.81 mg/kg of diet) was 4 (%30.8) n (%) and the “ICI Little visible, animals” value ([3]; L + ASI I: 1.81 mg/kg of diet) was 0 (%0) n (%). The “ICI Slightly visible, animals” value ([3]; L + ASI I: 1.81 mg/kg of diet) was 9 (%69.2) n (%), the “ICI Dense, animals” value ([3]; L + ASI II: 3.62 mg/kg of diet) was 2 (%15.4) n (%) and the “ICI Little visible, animals” value ([3]; L + ASI II: 3.62 mg/kg of diet) was 0 (%0)^ n (%). The “ICI Slightly visible, animals” value ([3]; L + ASI II: 3.62 mg/kg of diet) was 11 (%84.6) n (%), the “bone mineral density with respect to the controls and the ASI I group” value ([4]; ASI II (3.62 mg/kg of diet)) was “significantly increased” and the “BMD (bone mineral density)” value ([4]; L + ASI I: 1.81 mg/kg of diet) was 0.78 ± 0.07 g/cm^2. The “DCEJ-DCB/DCEJ-DRAP, rate of bone loss” value ([4]; L + ASI I: 1.81 mg/kg of diet) was 0.41 ± 0.12 ^, the “MCEJ-MCB/MCEJ-MRAP, rate of bone loss” value ([4]; L + ASI I: 1.81 mg/kg of diet) was 0.49 ± 0.10 ^a,b and the “RF-RFCB/RF-RFAP, rate of bone loss” value ([4]; L + ASI I: 1.81 mg/kg of diet) was 0.21 ± 0.04 ^a,b. For the same substance, the “BMD (bone mineral density)” value ([4]; L + ASI II: 3.62 mg/kg of diet) was 0.85 ± 0.06 ^b g/cm^2, the “DCEJ-DCB/DCEJ-DRAP, rate of bone loss” value ([4]; L + ASI II: 3.62 mg/kg of diet) was 0.42 ± 0.08 ^ and the “MCEJ-MCB/MCEJ-MRAP, rate of bone loss” value ([4]; L + ASI II: 3.62 mg/kg of diet) was 0.50 ± 0.10 ^a,b. The “RF-RFCB/RF-RFAP, rate of bone loss” value ([4]; L + ASI II: 3.62 mg/kg of diet) was 0.22 ± 0.05 ^a,b, the “improvement in periodontal symptoms” value ([5]; group (A): scaling and root planning combined with daily arginine silicate, eight and twelve weeks) was “significant improvement” and the “improvement in periodontal symptoms” value ([5]; group (A): scaling and root planning combined with daily arginine silicate, four weeks) was “significant improvement”. For the same substance, the “improvement in periodontal symptoms” value ([5]; group (C): daily arginine silicate alone, eight and twelve weeks) was “significant improvement”, the “improvement in periodontal symptoms” value ([5]; group (C): daily arginine silicate alone, four weeks) was “minimal improvement” and the “reduction in symptoms of gingivitis” value ([6]; group (I): administered once-daily, eight and twelve weeks) was “most significant reduction”. The “reduction in symptoms of gingivitis” value ([6]; group (I): administered once-daily, four weeks) was “significant reduction”, the “reduction in symptoms of gingivitis” value ([6]; group (II): topically administered once-daily to the oral cavity, eight and twelve weeks) was “most significant reduction” and the “reduction in symptoms of gingivitis” value ([6]; group (II): topically administered once-daily to the oral cavity, four weeks) was “significant reduction”.
